Test results published in paper PMC2855214 (Biochemistry, 2010).

Target: T1, human UMP/CMP kinase (Homo sapiens, UniProt P30085)
T1 sequence (P30085 1-196): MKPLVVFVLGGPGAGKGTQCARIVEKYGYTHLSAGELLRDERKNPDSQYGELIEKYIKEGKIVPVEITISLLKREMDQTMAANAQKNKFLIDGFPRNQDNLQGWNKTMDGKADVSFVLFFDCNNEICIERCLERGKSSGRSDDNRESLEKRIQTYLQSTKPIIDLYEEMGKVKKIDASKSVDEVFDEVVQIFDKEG
Assay: preparative enzymatic phosphorylation, product NMR
Format: biochemical
Details: ATP, Mg2+, pH 8, 37 °C

Nc1ccn([C@@H]2O[C@H](COP(=O)(O)O)[C@@H](O)C2(F)F)c(=O)n1 [F2CMP, 2′-Deoxy-2′,2′-difluorocytidine-5′-monophosphate]
preparative enzymatic phosphorylation, product NMR: F2CDP was generated enzymatically from F2CMP and ATP with human UMP/CMP kinase
